The term pKi denotes −log10 of the Ki, conventionally taken in molar units. Read a low pKi as a high Ki. The pEC50 is −log10 of the EC50, conventionally taken in molar units. Higher therefore signals a small EC50.

pEC50, pKi: −log10 of the molar value. Counter-ions that a name gives are not always drawn.

T1 sequence (P21453 whole entry, species assumed): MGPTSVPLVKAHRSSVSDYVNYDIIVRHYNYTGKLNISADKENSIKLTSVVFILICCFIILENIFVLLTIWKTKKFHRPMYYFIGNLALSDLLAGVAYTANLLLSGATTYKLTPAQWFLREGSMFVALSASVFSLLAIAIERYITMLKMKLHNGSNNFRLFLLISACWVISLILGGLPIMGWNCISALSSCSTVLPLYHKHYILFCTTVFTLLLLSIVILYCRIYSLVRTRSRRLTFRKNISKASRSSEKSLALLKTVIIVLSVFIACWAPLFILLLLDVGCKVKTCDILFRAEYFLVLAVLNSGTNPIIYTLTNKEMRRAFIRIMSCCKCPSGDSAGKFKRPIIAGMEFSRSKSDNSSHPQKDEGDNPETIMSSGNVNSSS

One test concerns the target T1, S1P1 (Homo sapiens, UniProt P21453).
T1 construct: expressed in transfected cells; host or cells: CHO cells (membranes)
As to the kind of experiment: Receptor binding assay, [33P]sphingosine 1-phosphate, membranes, WGA SPA beads. Conditions: membranes from CHO cells expressing S1P1; 25 pM [33P]S1P; 60 min RT. The procedure:
Receptor binding assay: Membranes were prepared from CHO cells expressing S1P1 or S1P3 for use in ligand and […] binding studies. Cells were suspended in 50 mM TRIS, pH 7.4, 2 mM EDTA, 250 mM Sucrose (buffer A) and 1× Complete protease inhibitor cocktail (Roche), and disrupted at 4° C. by N2 decompression using a cell disruption bomb (Parr Instrument). Following centrifugation at 1000 RPM for 10 min at 4° C., the supernatant was suspended in buffer A and centrifuged again at 19000 RPM for 60 min at 4° C. The pellet was then suspended in 10 mM HEPES, pH 7.4, 1 mM EDTA, 250 mM Sucrose (Buffer B), and 1× Complete EDTA-free protease inhibitor cocktail and homogenized using a potter. Membranes were flash frozen in liquid N2 and stored at −80° C. [33P]sphingosine 1-phosphate (3000 Ci/mmol; American Radiolabeled Chemicals, Inc.) was added to test compounds in DMSO. Membranes and WGA SPA beads (GE Healthcare) were added to give a final volume of 100 μl in 96-well plates with assay concentrations of 25 pM or 10 pM [33P]sphingosine 1-phosphate (respectively for S1P1 or S1P3), 50 mM HEPES, pH 7.5, 5 mM MgCl2, 100 mM NaCl, 0.4% fatty acid-free BSA, 1-5 μg/well of proteins and 100 μg/well of WGA SPA beads. Binding was performed for 60 min at RT on a shaker and bound radioactivity was measured on a PerkinElmer 1450 MicroBeta counter. Specific binding was calculated by subtracting remaining radioactivity in the presence of 1000-fold excess of unlabeled S1P. Binding data were analyzed using the GraphPad Prism program.
As for `O=C(O)c1ccc(-c2noc(-c3ccc(-c4ccccc4C(F)(F)F)cc3)n2)cc1F` [Example 1, 2-fluoro-4-{5-[2′-(trifluoromethyl)biphenyl-4-yl]-1,2,4-oxadiazol-3-yl}benzoic acid], the pKi is 5.61. Take `Cc1cccc(C)c1-c1ccc(-c2nc(-c3ccc(C(=O)O)c(F)c3)no2)cc1` [Example 3, 4-[5-(2′,6′-dimethylbiphenyl-4-yl)-1,2,4-oxadiazol-3-yl]-2-fluorobenzoic acid]: the pKi was 5.59.

In the case of `CC(C)COc1ncc(-c2nc(-c3ccc(C(=O)O)c(F)c3)no2)cc1Cl` [Example 34, 4-[5-(5-chloro-6-isobutoxypyridin-3-yl)-1,2,4-oxadiazol-3-yl]-2-fluorobenzoic acid], the pKi was 5.53. `CC(C)Oc1ncc(-c2nc(-c3ccc(C(=O)O)c(F)c3)no2)cc1Cl` [Example 36, 4-[5-(5-chloro-6-isopropoxypyridin-3-yl)-1,2,4-oxadiazol-3-yl]-2-fluorobenzoic acid] showed a pKi of 6.28.

For another test, the target named is T1, S1P1. As to the kind of experiment: 35S-GTPγS binding, S1P1 membranes. Type of test: biochemical. To be noted: membranes from CHO cells expressing S1P1; 60 min 30° C. In outline: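 CHO-cell membranes expressing S1P1 or S1P3 (1-10 μg) incubated with compounds in 20 mM HEPES pH 7.4, 10 mM MgCl2, 140 mM NaCl, saponin, 0.2% BSA, 1.7 μM GDP and [35S]-GTPγS (20 μl of 1.5 nM added), 60 min at 30° C. Bound radioactivity expressed as % of S1P activation.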
Background: GTPγS resists hydrolysis and so accumulates on activated G proteins.
As to `CC(C)COc1ncc(-c2nc(-c3ccc(C(=O)O)c(F)c3)no2)cc1Cl` [Example 34, 4-[5-(5-chloro-6-isobutoxypyridin-3-yl)-1,2,4-oxadiazol-3-yl]-2-fluorobenzoic acid], the pEC50 is 5.30. The same measure, in the same setting: for `COCc1cc(-c2nc(-c3cccc(CNCCC(=O)OC(C)(C)C)c3)no2)ccc1-c1ccccc1C` [Example 153, tert-butyl N-(3-{5-[2-(methoxymethyl)-2′-methylbiphenyl-4-yl]-1,2,4-oxadiazol-3-yl}benzyl)-beta-alaninate] the value was 7.60. In turn, `COCc1cc(-c2nc(-c3ccc(F)c(CN(C)CCC(=O)O)c3)no2)ccc1-c1ccccc1C` [Example 154, N-(2-fluoro-5-{5-[2-(methoxymethyl)-2′-methylbiphenyl-4-yl]-1,2,4-oxadiazol-3-yl}benzyl)-N-methyl-beta-alanine, Hydrochloride salt] had a pEC50 of 8.92. The molecule `COCc1cc(-c2nc(-c3cccc(CNCCC(=O)O)c3)no2)ccc1-c1ccccc1C` [Example 155, N-(3-{5-[2-(methoxymethyl)-2′-methylbiphenyl-4-yl]-1,2,4-oxadiazol-3-yl}benzyl)-beta-alanine, Hydrochloride salt] showed a negative-log EC50 (pEC50) of 9.40. Same read-out and setting: the figure for `CCc1ccccc1-c1ccc(-c2nc(-c3ccc(F)c(CN(C)CCC(=O)O)c3)no2)cc1COC` [Example 156, N-(5-{5-[2′-ethyl-2-(methoxymethyl)biphenyl-4-yl]-1,2,4-oxadiazol-3-yl}-2-fluorobenzyl)-N-methyl-beta-alanine, Hydrochloride salt] is 8.60; for `COCc1cc(-c2nc(-c3ccc(F)c(CN(C)CCC(=O)O)c3)no2)ccc1OC(C)C` [Example 157, N-(2-fluoro-5-{5-[4-isopropoxy-3-(methoxymethyl)phenyl]-1,2,4-oxadiazol-3-yl}benzyl)-N-methyl-beta-alanine, Hydrochloride salt] it is 8.40.

`COCc1cc(-c2nc(-c3ccc(F)c(CN(C)CC(=O)O)c3)no2)ccc1OC(C)C` [Example 158, N-(2-fluoro-5-{5-[4-isopropoxy-3-(methoxymethyl)phenyl]-1,2,4-oxadiazol-3-yl}benzyl)-N-methylglycine, Hydrochloride salt] showed a pEC50 of 8.00. `COCc1cc(-c2nc(-c3cccc(COCC(=O)OC)c3)no2)ccc1-c1ccccc1C` [Example 159, Methyl [(3-{5-[2-(methoxymethyl)-2′-methylbiphenyl-4-yl]-1,2,4-oxadiazol-3-yl}benzyl)oxy]acetate] gave a pEC50 of 8.54. In turn, `COCc1cc(-c2nc(-c3cccc(COCC(=O)O)c3)no2)ccc1-c1ccccc1C` [Example 160, [(3-{5-[2-(methoxymethyl)-2′-methylbiphenyl-4-yl]-1,2,4-oxadiazol-3-yl}benzyl)oxy]acetic acid] had a pEC50 of 9.22. The same measure, in the same setting: for `COCc1cc(-c2nc(-c3cccc(CCOCC(=O)O)c3)no2)ccc1-c1ccccc1C` [Example 161, [2-(3-{5-[2-(methoxymethyl)-2′-methylbiphenyl-4-yl]-1,2,4-oxadiazol-3-yl}phenyl)ethoxy]acetic acid] the value was 8.68. Regarding `CCc1ccccc1-c1ccc(-c2nc(-c3ccc(OCCCC(=O)O)c(F)c3)no2)cc1COC` [Example 162, 4-(4-{5-[2′-ethyl-2-(methoxymethyl)biphenyl-4-yl]-1,2,4-oxadiazol-3-yl}-2-fluorophenoxy)butanoic acid], the pEC50 is 8.30. In the case of `CCOC(=O)CCCOc1ccc(-c2noc(-c3ccc(N4CCCCC4C)c(COC)c3)n2)cc1F` (centres unmarked) [Example 163, ethyl 4-(2-fluoro-4-{5-[3-(methoxymethyl)-4-(2-methylpiperidin-1-yl)phenyl]-1,2,4-oxadiazol-3-yl}phenoxy)butanoate], the pEC50 is 8.26. `COCc1cc(-c2nc(-c3cccc(OCCCC(=O)O)c3)no2)ccc1N1CCCCC1C` (centres unmarked) [Example 164, 4-(3-{5-[3-(methoxymethyl)-4-(2-methylpiperidin-1-yl)phenyl]-1,2,4-oxadiazol-3-yl}phenoxy)butanoic acid] gave a pEC50 of 8.82. On to `COCc1cc(-c2nc(-c3ccc(OCCCC(=O)O)c(F)c3)no2)ccc1N1CCCCC1C` (centres unmarked) [Example 165, 4-(2-fluoro-4-{5-[3-(methoxymethyl)-4-(2-methylpiperidin-1-yl)phenyl]-1,2,4-oxadiazol-3-yl}phenoxy)butanoic acid], for which the pEC50 is 8.80. `COCc1cc(-c2nc(-c3ccc(OCC(=O)O)c(F)c3)no2)ccc1N1CCCCC1C` (centres unmarked) [Example 169, (2-fluoro-4-{5-[3-(methoxymethyl)-4-(2-methylpiperidin-1-yl)phenyl]-1,2,4-oxadiazol-3-yl}phenoxy)acetic acid, hydrochloride salt] had a pEC50 of 8.28. Consider `COCCNC(=O)c1ccc(-c2noc(-c3ccc(-c4ccccc4C)c(COC)c3)n2)cc1F` [Example 172, 2-fluoro-N-(2-methoxyethyl)-4-{5-[2-(methoxymethyl)-2′-methylbiphenyl-4-yl]-1,2,4-oxadiazol-3-yl}benzamide], for which the pEC50 was 7.48. In turn, `COCc1cc(-c2nc(-c3ccc(C(=O)N4CC(F)(F)C4)c(F)c3)no2)ccc1-c1ccccc1C` [Example 175, 3-{4-[(3,3-difluoroazetidin-1-yl)carbonyl]-3-fluorophenyl}-5-[2-(methoxymethyl)-2′-methylbiphenyl-4-yl]-1,2,4-oxadiazole] gave a pEC50 of 6.89. Molecule `CCc1cnc(CCNC(=O)c2ccc(-c3noc(-c4ccc(-c5ccccc5C)c(COC)c4)n3)cc2F)o1` [Example 176, N-[2-(5-ethyl-1,3-oxazol-2-yl)ethyl]-2-fluoro-4-{5-[2-(methoxymethyl)-2′-methylbiphenyl-4-yl]-1,2,4-oxadiazol-3-yl}benzamide] gave a negative-log EC50 (pEC50) of 6.71. In turn, `CCc1nnn(CCNC(=O)c2ccc(-c3noc(-c4ccc(-c5ccccc5C)c(COC)c4)n3)cc2F)n1` [Example 180, N-[2-(5-ethyl-2H-tetrazol-2-yl)ethyl]-2-fluoro-4-{5-[2-(methoxymethyl)-2′-methylbiphenyl-4-yl]-1,2,4-oxadiazol-3-yl}benzamide] had a negative logarithm of the EC50 (pEC50) of 7.59. With `COCCNC(=O)c1cccc(-c2noc(-c3ccc(-c4ccccc4C)c(COC)c3)n2)c1` [Example 181, N-(2-methoxyethyl)-3-{5-[2-(methoxymethyl)-2′-methylbiphenyl-4-yl]-1,2,4-oxadiazol-3-yl}benzamide], the pEC50 was 7.80. Take `COCc1cc(-c2nc(-c3cccc(C(N)=O)c3)no2)ccc1-c1ccccc1C` [Example 182, 3-{5-[2-(methoxymethyl)-2′-methylbiphenyl-4-yl]-1,2,4-oxadiazol-3-yl}benzamide]: the pEC50 is 7.96. Molecule `COCc1cc(-c2nc(-c3cccc(CNCCO)c3)no2)ccc1-c1ccccc1C` [Example 187, 2-[(3-{5-[2-(methoxymethyl)-2′-methylbiphenyl-4-yl]-1,2,4-oxadiazol-3-yl}benzyl)amino]ethanol, Hydrochloride salt] gave a pEC50 of 8.70.

On to `COCCNCc1cccc(-c2noc(-c3ccc(-c4ccccc4C)c(COC)c3)n2)c1` [Example 188, 2-methoxy-N-(3-{5-[2-(methoxymethyl)-2′-methylbiphenyl-4-yl]-1,2,4-oxadiazol-3-yl}benzyl)ethanamine, Hydrochloride salt], for which the pEC50 was 8.40. Take `COCCOCc1cccc(-c2noc(-c3ccc(-c4ccccc4C)c(COC)c3)n2)c1` [Example 192]: the pEC50 is 8.21.

With `COCc1cc(-c2nc(-c3cccc(COCCO)c3)no2)ccc1-c1ccccc1C` [Example 193, 2-[(3-{5-[2-(methoxymethyl)-2′-methylbiphenyl-4-yl]-1,2,4-oxadiazol-3-yl}benzyl)oxy]ethanol], the pEC50 is 8.74.

(Values after patent US8202865B2, “Oxadiazole derivatives” (Merck Serono SA, priority 2007, dated 2012).)
